Legend:
[1] = target: T1, Slco1a4 (Mus musculus, UniProt Q9EP96); test: Compound uptake in HEK293 cells transfected with Slco1a4; assay type: cell-based; parameters: FLAG; expressed in transfected cells; details: concentration not given
T1 sequence (Q9EP96 1-670): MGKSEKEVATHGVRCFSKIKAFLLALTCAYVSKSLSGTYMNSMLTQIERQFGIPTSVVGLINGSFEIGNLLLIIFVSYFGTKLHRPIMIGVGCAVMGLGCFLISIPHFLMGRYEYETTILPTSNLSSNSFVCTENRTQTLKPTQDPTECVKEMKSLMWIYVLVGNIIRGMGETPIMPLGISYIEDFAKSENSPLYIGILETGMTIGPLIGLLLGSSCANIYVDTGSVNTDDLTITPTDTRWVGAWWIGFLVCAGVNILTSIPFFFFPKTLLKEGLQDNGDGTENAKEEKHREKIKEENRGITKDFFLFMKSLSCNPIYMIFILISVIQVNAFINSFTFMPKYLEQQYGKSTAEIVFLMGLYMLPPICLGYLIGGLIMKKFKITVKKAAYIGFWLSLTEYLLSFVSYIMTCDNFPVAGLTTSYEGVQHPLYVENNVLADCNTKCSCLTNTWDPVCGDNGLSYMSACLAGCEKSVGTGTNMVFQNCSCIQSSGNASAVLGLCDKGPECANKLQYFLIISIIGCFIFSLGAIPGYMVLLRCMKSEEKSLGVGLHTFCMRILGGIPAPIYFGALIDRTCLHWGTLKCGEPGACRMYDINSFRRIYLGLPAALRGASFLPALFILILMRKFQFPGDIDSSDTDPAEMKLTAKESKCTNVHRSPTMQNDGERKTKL
Method: (§1) HEK293 cells are cultured and seeded at ~60% confluency in 24-well plates and are transiently transfected with 250 ng of a candidate transporter and 1 μL transfection reagent (JetPRIME). After 2 days, cells are washed and novel fluorescent probes at different concentrations are added to the transport medium and incubated at 37° C., for at least 30 minutes. To terminate the transport, cells are washed with PBS and fixed with 4% paraformaldehyde. The colocalization of probe uptake and cells expressing the transporters is investigated by immunostaining the transporter which has a fused FLAG tag, using anti-FLAG 488. Before confocal imaging, nuclei are labeled with Hoechst 33342 and cells are mounted and imaged on a Leica SP8 confocal microscope.
(§2) For in vitro experiments, HEK293 cells were cultured and seeded in 24-well plates, reaching approximately 60% confluency. For transient transfection, 250 ng of a candidate transporter plasmid and 1 μL of transfection reagent (JetPRIME) were added to the cells. After a 2-day incubation period, the cells were washed, and novel fluorescent probes were introduced into the transport medium at various concentrations. The cells were then incubated at 37° C., for a minimum of 30 minutes to allow for uptake. To stop the transport process, the cells were washed with PBS and fixed using 4% paraformaldehyde. Immunostaining of the transporter, which was fused with a FLAG tag, was performed using an anti-FLAG 488 antibody. Before confocal imaging, the cell nuclei were labeled with Hoechst 33342. Finally, the cells were mounted and imaged using a Leica SP8 confocal microscope.

[2] = target: T2, SLCO1A2 (Homo sapiens, UniProt P46721); test: Compound uptake in HEK293 cells transfected with SLCO1A2; assay type: cell-based; parameters: FLAG; details: concentration not given
T2 sequence (P46721 1-670): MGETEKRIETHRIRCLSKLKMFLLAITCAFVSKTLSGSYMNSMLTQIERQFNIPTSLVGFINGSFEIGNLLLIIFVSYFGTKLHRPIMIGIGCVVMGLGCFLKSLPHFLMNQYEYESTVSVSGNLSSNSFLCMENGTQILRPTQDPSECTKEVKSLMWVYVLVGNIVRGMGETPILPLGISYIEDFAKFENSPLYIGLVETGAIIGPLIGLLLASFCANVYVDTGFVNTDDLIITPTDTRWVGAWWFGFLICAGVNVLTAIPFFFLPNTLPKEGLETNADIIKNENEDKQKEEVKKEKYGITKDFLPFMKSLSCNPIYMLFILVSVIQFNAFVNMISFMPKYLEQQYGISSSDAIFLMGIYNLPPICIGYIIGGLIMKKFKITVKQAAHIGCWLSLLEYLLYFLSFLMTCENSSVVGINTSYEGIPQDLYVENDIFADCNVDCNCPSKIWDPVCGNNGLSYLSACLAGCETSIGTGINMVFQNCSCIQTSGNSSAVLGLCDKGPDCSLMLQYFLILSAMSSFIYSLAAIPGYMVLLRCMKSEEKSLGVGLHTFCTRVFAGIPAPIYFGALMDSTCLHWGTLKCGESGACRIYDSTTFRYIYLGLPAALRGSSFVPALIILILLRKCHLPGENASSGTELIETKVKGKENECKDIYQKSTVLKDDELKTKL
Method: as §1, §2

- uptake in Slco1a4 transfected HEK293 cells [1]: is taken up
- uptake in SLCO1A2 transfected HEK293 cells [2]: is taken up
SMILES: CCN(CC)c1ccc2c(-c3ccc(S(=O)(=O)NCCNC(=O)c4ccc(Nc5nc(N(C)[C@H]6CN(C(=O)CC#N)CC[C@H]6C)c6cc[nH]c6n5)cc4)cc3S(=O)(=O)[O-])c3ccc(=[N+](CC)CC)cc-3oc2c1 [Compound 53, 5-(N-(2-(4-((4-(((3R,4R)-1-(2-cyanoacetyl)-4-methylpiperidin-3-yl)(methyl)amino)-7H-pyrrolo[2,3-d]pyrimidin-2-yl)amino)benzamido)ethyl)sulfamoyl)-2-(6-(diethylamino)-3-(diethyliminio)-3H-xanthen-9-yl)benzenesulfonate]

Reference: patent US20260272895A1, “METHODS AND KITS FOR DELIVERY OF COMPOUNDS INTO CELLS” (Yale University, priority 2023, published 2026)
